Measurements as given in patent publication US12678453B2, “Aerosolized formulations of HIV protease inhibitors for the treatment of airway reflux” (The Medical College of Wisconsin, Inc., priority 2020, dated 2026).
Entries after “also recorded” stand apart in the source; their conditions may differ.

Key:
porcine pepsin [1] = target: T1, porcine pepsin (Sus scrofa, UniProt P00791); assay: competitive binding assay (fluorescence polarization, pepstatin-Alexa647 probe); details: 100 nM pepstatin-Alexa647, 0.03U/ul pepsin, 37.5% DMSO; FIG. 3A
T1 construct: purchased Worthington (Lakewood, NJ)
T1 sequence (P00791 60-385): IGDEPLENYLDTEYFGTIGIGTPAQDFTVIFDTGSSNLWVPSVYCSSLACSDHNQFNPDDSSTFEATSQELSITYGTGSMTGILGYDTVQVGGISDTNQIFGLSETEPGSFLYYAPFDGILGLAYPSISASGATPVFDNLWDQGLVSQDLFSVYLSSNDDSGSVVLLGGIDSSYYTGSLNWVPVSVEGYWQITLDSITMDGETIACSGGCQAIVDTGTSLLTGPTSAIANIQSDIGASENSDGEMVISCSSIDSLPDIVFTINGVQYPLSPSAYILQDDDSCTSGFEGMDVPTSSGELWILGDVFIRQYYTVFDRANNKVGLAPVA
Source text: (§1) Fluorescent polarization assays were developed to test compound binding and inhibition of pepsin (FIG. 1). A competitive binding assay was developed using pepstatin, a known inhibitor of pepsin with subnanomolar affinity^91 (Roberts 2003). This binding assay measures the relative binding affinity but not the enzymatic inhibition of compounds. Thus, a separate peptic activity assay was developed, which uses fluorescently labelled alpha casein as substrate. Both assays are based on the principle of fluorescence polarization (FP), which holds that as the molecular size of a fluorescent species is altered through dissociation/breakdown or association/binding events, the degree of depolarization of plane polarized light changes accordingly, directly affecting the FP value.^92 (Lea 2011). In the assays used herein, millipolarization (mP) decreases as casein-Alexa647 is degraded by pepsin and increases with binding of pepsin to pepstatin-Alexa647.
(§2) Assays were performed in 20 ul volumes in 384-well black optical plates (Nunc, Roskilde, DK). Pepstatin dose response curves were used to optimize pepsin/inhibitor concentrations and assay incubation times. Dose response was performed using 0.3-1000 uM unlabeled pepstatin with 100-500 nM pepstatin-Alexa647 probe, 0.003-3U/μl porcine pepsin (Worthington, Lakewood, NJ), and 10-37% dimethyl sulfoxide (HIV protease inhibitor diluent) in 0.1M HCl, pH1+0.01% Tween-20. Reagents were combined (with pepsin added last) in 50% of the final reaction volume for mixing and immediately read on a BioTek Cytation (BioTek Instruments, Winooski, VT) with far-red FP filter cube at excitation/emission of […] for five minutes, in at least triplicate. Averaged polarization values of replicate reads were plotted against probe or labeled pepstatin concentrations in GraphPad Prism 8 (La Jolla, CA). Reagent concentrations yielding greatest dynamic range were selected for the assay. The peptic activity assay was optimized similarly using casein-Alexa647 probe in 0.1M HCl, pH1+0.01% Tween-20. Reagents were combined (adding pepsin last) and read immediately at minimal intervals (<2 minutes apart) over 30 minutes. The assay was performed in triplicate and mean polarization value was plotted over time.
HIV protease inhibitors were dissolved in DMSO. Amprenavir, ritonavir, lopinavir, saquinavir mesylate, nelfinavir mesylate hydrate, darunavir ethanolate, indinavir sulfate salt hydrate were obtained from Sigma-Aldrich. […] Half-maximal inhibitory concentration (IC50) were calculated from kinetic traces analyzed using an online tool (icekat.herokuapp.com/icekat, O1p 2019^95). Percent bound and percent activity were calculated by normalization to the measured polarization value without HIV protease inhibitor compound. […]

porcine pepsin [2] = target: T1, porcine pepsin; assay: peptic activity assay (fluorescence polarization, casein-Alexa647 substrate); assay type: biochemical; details: for inhibition of pepsin activity: 200 nM casein-Alexa647, 0.01 U/μL pepsin, 5% DMSO, FIG. 3B; for IC50 for pepsin: bind to and inhibit pepsin, numbers only in FIG. 3
Source text: as §1
Casein was labeled as described by Jolley (1996)^93 using a 2.5 ug/mg label to protein ratio. Specifically, 200 ul 10 mg/ml bovine alpha casein (C6780 Sigma Aldrich, St. Louis, MO) in 0.1M sodium bicarbonate was incubated with 5 ul 1 mg/ml Alexa Fluor 647 Carboxylic Acid, Succinimidyl Ester (in DMSO; A-20106 ThermoFisher Scientific, Waltham, MA) for 15 minutes at room temperature. The mixture was applied to a Sephadex G-25 column (90×5 mm) in a glass Pasteur pipette. Elution was performing using D-PBS pH7.4 (ThermoFisher Scientific) containing 0.1% sodium azide. The fast-moving band containing casein-bound fluorophore was collected in a volume of approximately 0.4 ml. Concentration of resultant probe (casein-Alexa647 in PBS-azide) was estimated via spectrophotometry using Beer's law (Implen Nanophotometer, Implen, Inc. Westlake Village, CA). Probe was aliquoted and stored at −20° C. until use.
as §2
HIV protease inhibitors were dissolved in DMSO. […] Compounds were tested under optimized assay conditions over a range of three logs concentration in triplicate and plotted using GraphPad Prism 8. Half-maximal inhibitory concentration (IC50) were calculated from kinetic traces analyzed using an online tool (icekat.herokuapp.com/icekat, O1p 2019^95). Percent bound and percent activity were calculated by normalization to the measured polarization value without HIV protease inhibitor compound.
Our team developed and optimized two high-throughput screening (HTS) assays to identify compounds that are specific and sensitive inhibitors of pepsin (FIG. 1). The first assay is a binding assay that measures the ability of a compound to compete with fluorescently labeled pepstatin for its binding site on pepsin.

[3] = known clinical profile; cited from earlier work

competitive binding to pepsin (porcine pepsin [1])	inhibition of pepsin activity (porcine pepsin [2])	IC50 for pepsin (porcine pepsin [2])	SMILES	side effects / tolerability [3]
competitive binding to pepsin	inhibition of pepsin activity	low micromolar range	CC(C)CN(C[C@@H](O)[C@H](Cc1ccccc1)NC(=O)O[C@H]1CCOC1)S(=O)(=O)c1ccc(N)cc1 [amprenavir, [(3S)-oxolan-3-yl] N-[(2S,3R)-4-[(4-aminophenyl)sulfonyl-(2-methylpropyl)amino]-3-hydroxy-1-phenylbutan-2-yl]carbamate]	minimal side effects such as diarrhea, nausea and vomiting
competitive binding to pepsin	inhibition of pepsin activity	–	CC(C)c1nc(CN(C)C(=O)N[C@H](C(=O)N[C@@H](Cc2ccccc2)C[C@H](O)[C@H](Cc2ccccc2)NC(=O)OCc2cncs2)C(C)C)cs1 [ritonavir, 1,3-thiazol-5-ylmethyl N-[(2S,3 S,5S)-3-hydroxy-5-[[(2S)-3-methyl-2-[[methyl-[(2-propan-2-yl-1,3-thiazol-4-yl)methyl]carbamoyl]amino]butanoyl]amino]-1,6-diphenylhexan-2-yl]carbamate]	minimal side effects such as diarrhea, nausea and vomiting
competitive binding to pepsin	inhibition of pepsin activity	low micromolar range	CC(C)(C)NC(=O)[C@@H]1C[C@@H]2CCCC[C@@H]2CN1C[C@@H](O)[C@H](Cc1ccccc1)NC(=O)[C@H](CC(N)=O)NC(=O)c1ccc2ccccc2n1 [saquinavir, (2S)—N-[(2S,3R)-4-[(3 S,4aS,8aS)-3-(tert-butylcarbamoyl)-3,4,4a,5,6,7,8,8a-octahydro-1H-isoquinolin-2-yl]-3-hydroxy-1-phenylbutan-2-yl]-2-(quinoline-2-carbonylamino)butanediamide]	can cause QT prolongation, heart block, high blood lipids, and liver problems

SMILES	competitive binding to pepsin (porcine pepsin [1])	inhibition of pepsin activity (porcine pepsin [2])	IC50 for pepsin (porcine pepsin [2])	side effects / tolerability [3]
CC(C)CN(C[C@@H](O)[C@H](Cc1ccccc1)NC(=O)O[C@H]1CO[C@H]2OCC[C@H]21)S(=O)(=O)c1ccc(N)cc1 [darunavir, [(3a S,4R,6aR)-2,3,3a,4,5,6a-hexahydrofuro[2,3-b]furan-4-yl] N-[(2S,3R)-4-[(4-aminophenyl)sulfonyl-(2-methylpropyl)amino]-3-hydroxy-1-phenylbutan-2-yl]carbamate]	competitive binding to pepsin	inhibition of pepsin activity	low micromolar range; also recorded: lowest IC50	–
